Where two headings read alike, the source gives them in different places.
Legend:
5α-reductase = assay: Catechin gallates in rat liver microsomes or cells expressing type 1 or type 2 5α-reductase; assay type: biochemical; details: for inhibitory activity: vs catechin gallate
[1] = biological target: T1, 5α-Reductase of Rat Liver Microsomes (Rattus norvegicus, UniProt P24008); details: for stimulation or inhibition of [^3 H]4-MA binding: 40 μM
T1 sequence (P24008 1-259): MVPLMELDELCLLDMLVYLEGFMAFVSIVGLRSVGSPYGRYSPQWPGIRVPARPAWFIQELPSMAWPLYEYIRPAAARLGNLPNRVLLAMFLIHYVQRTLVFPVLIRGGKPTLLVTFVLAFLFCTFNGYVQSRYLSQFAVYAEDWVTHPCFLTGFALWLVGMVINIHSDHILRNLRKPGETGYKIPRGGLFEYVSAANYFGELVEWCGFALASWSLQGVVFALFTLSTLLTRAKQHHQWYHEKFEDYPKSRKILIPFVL

[2] = biological target: T1, 5α-Reductase of Rat Liver Microsomes; assay: biochemical; details: for activation at 200 µM: 1 h, read-out: stimulation of [^3 H]4-MA binding
microsomal 5α-reductase = biological target: T2, microsomal 5α-reductase (Rattus norvegicus, UniProt P24008); assay: Enzymatic assay of microsomal 5α-reductase (testosterone to 5α-DHT); assay type: biochemical; details: prostate or liver microsomes
T2 construct: from the livers of adult Sprague-Dawley female rats; from tissue; host or cells: liver microsomes of adult female Sprague-Dawley rats
T2 sequence (P24008 1-259): T1 sequence (P24008 1-259)
Experimental: Microsomes were prepared at 4° C. from a buffered 0.32M-sucrose homogenate of human liver and from the livers of adult Sprague-Dawley female rats by differential centrifugation as described previously (Liang et al., 1990), and were used in the assay of 5α-reductase activity. In some experiments, microsomes were solubilized with 0.1% polyoxyethylene ether W-1 as described previously (Liang et al., 1990), except for the substitution of polyoxyethylene ether W-1 for Lubrol-WX.

hamster flank organ = assay: Flank organ, castrated immature male hamsters, topical treatment; assay type: in vivo, Syrian golden hamster; details: for Pigmented macule Right (+T): T alone 49.6 ± 8.3; for Pigmented macule Left: Table 5, fatty acid 1 mg without T; for inhibition of T-induced growth of pigmented macule: hamster, in vivo
Experimental: One to two weeks after castration, the hair on the lower back of each animal was clipped with an electric hair clipper and then shaved weekly to expose the flank organs. The animals were divided into 5 animals/treatment group. A treatment solution (5 μl) was applied topically to the right flank organ once a day using a Pipetteman and a polypropylene disposable tip. Unless specified the left flank organ was not treated. The treatment solution contained either (a) ethanol alone (vehicle and control), (b) an androgen (T or 5α-DHT), (c) a fatty acid, or (d) a combination of an androgen and a fatty acid. The flank organ was wiped with an alcohol pad to remove residual compound before each treatment. […] The flank organs, both the treated and untreated sides, were evaluated with methods to be described below to determine the effect of these treatments of the growth of the pigmented macules and the sebaceous glands. The body weight of each animal was recorded before and after treatment.
The data are presented as mean ± standard deviation. […]

[3] = biological target: T1, 5α-Reductase of Rat Liver Microsomes; assay: [3H]4-MA binding assay, rat liver microsomes (tea catechins); details: concentrations up to 200 μM
Experimental: Microsomes were prepared as described previously (Liang and Liao, 1992) from the liver of adult Sprague-Dawley female rats or Rat-1A cells expressing a specific type of human 5α-reductase. Each study was carried out in duplicate or triplicate which were usually within 10% of each other. Several studies were preformed to assure that the results shown are representative. The data presented was based on the rate of reaction.
[^3 H]4-MA binding assay were described in detail previously (Liang and Liao, 1992; Liang et al., 1983). […] The reaction was started by the addition of 25 μl of microsomes (25 μg protein). After 30-60 min incubation at 0° C., the [^3 H]4-MA bound to microsomes was collected on a Whatman GF/F glass fiber, washed and radioactivity determined (Liang and Liao, 1992).

[4] = read-out: % Inhibition of [^3 H]4-MA binding, Table 1, 10 μM
[5] = read-out: % Inhibition of [^3 H]4-MA binding, Table 1, 40 μM
[6] = read-out: % Inhibition of [^3 H]4-MA binding, Table 1, 200 μM
[7] = read-out: % Inhibition of [^3 H]4-MA binding, Table 2, 5 μM
[8] = read-out: % Inhibition of [^3 H]4-MA binding, Table 2, 10 μM
[9] = read-out: % Inhibition of [^3 H]4-MA binding, Table 2, 40 μM
[10] = read-out: % Inhibition of [^3 H]4-MA binding, Table 2, 200 μM
[11] = Table 5, T 0.5 μg + fatty acid 1 mg
[12] = Table 5, T 0.5 μg + fatty acid 1 mg, 21 days
[13] = read-out: % Inhibition of [^3 H]4-MA binding

With `NC(=O)c1cc(O)c(O)c(O)c1` [3,4,5-trihydroxybenzamide] the “inhibitory activity” value (5α-reductase) was “not as active as catechin gallate”.

With `CC1=C(/C=C/C(C)=C/C=C/C(C)=C\C(=O)O)C(C)(C)CCC1` [13-cis-retinoic acid] the “inhibitory activity in [^3 H]4-MA binding assay” value [1] was “slightly stimulatory”, the “stimulation or inhibition of [^3 H]4-MA binding” value (from here on “stimulation or inhibition”) [1] was “no stimulation or inhibition” and the activation at 200 µM [2] was 58%.

For `CC1=C(/C=C/C(C)=C/C=C/C(C)=C\CO)C(C)(C)CCC1` [13-cis-retinol], the “inhibitory activity in [^3 H]4-MA binding assay” value [1] was “slightly stimulatory”, the “stimulation or inhibition” value [1] was “no stimulation or inhibition” and the activation at 200 µM [2] was 58%.

In the case of `Oc1cc(O)c2c(c1)OC(c1ccc(O)c(O)c1)C(O)C2` (stereo not shown) [Catechin], the inhibition (5α-reductase; 40 μM) is reported as “less than 25%”.

With `CC/C=C\C/C=C\C/C=C\C/C=C\C/C=C\C/C=C\CCC(=O)O` [Docosahexaenoic acid, cis-4,7,10,13,16,19-docosahexaenoic acid] the “inhibitory activity in [^3 H]4-MA binding assay” value [1] was “potent inhibitor”, the IC50 [2] was 47 µM and the inhibition at 10 µM [2, 4] was < 10%. For the same compound, the inhibition at 40 µM [2, 5] was 27 ± 1%, the inhibition at 200 µM [2, 6] was 87 ± 6% and the inhibition at 5 µM [2, 7] was < 10%. For the same compound, the inhibition at 10 µM [2, 8] was 18%, the inhibition at 40 µM [2, 9] was 49% and the inhibition at 200 µM [2, 10] was 86%.

For `CCCCCCCC/C=C/CCCCCCCC(=O)O` [Elaidic acid], the “inhibition in the enzymatic assay” value (microsomal 5α-reductase) was “as potent as their cis isomers”, the “p (significance of inhibition)” value (hamster flank organ; [11]) was “N.S” and the “Pigmented macule Right (+T)” value (hamster flank organ; [12]) was 47.0 ± 5.9 mm^2. The “Pigmented macule Left” value (hamster flank organ; 21 days) was 4.9 ± 1.1 mm^2, the “inhibition of T-induced growth of pigmented macule” value (from here on “inhibition … of pigmented macule”) (hamster flank organ) was “inactive” and the “inhibitory activity in [^3 H]4-MA binding assay” value [1] was “much less inhibitory than their cis isomers”. The inhibition at 10 µM [2, 4] was < 10%, the inhibition at 40 µM [2, 5] was < 10% and the inhibition at 200 µM [2, 6] was < 10%. For the same compound, the inhibition at 10 µM [2, 8] was < 10%, the inhibition at 40 µM [2, 9] was < 10% and the inhibition at 200 µM [2, 10] was < 10%.

For `CCCCCCCC/C=C\CCCCCCCCCCCC(=O)O` [Erucic acid], the “Percent Inhibition” value (hamster flank organ; [12]) was 29%, the “Pigmented macule Right (+T)” value (hamster flank organ; [12]) was 35.4 ± 4.6 mm^2 and the “Pigmented macule Left” value (hamster flank organ; 21 days) was 4.6 ± 1.5 mm^2. For the same compound, the “inhibition … of pigmented macule” value (hamster flank organ) was “Weak inhibitions”, the “inhibitory activity in [^3 H]4-MA binding assay” value [1] was “inactive” and the IC50 [2] was > 200 µM. The inhibition at 40 µM [2, 5] was < 10%, the inhibition at 200 µM [2, 6] was < 10% and the inhibition at 10 µM [2, 8] was < 10%. The inhibition at 40 µM [2, 9] was < 10% and the inhibition at 200 µM [2, 10] was < 10%.

In the case of `CCCCC/C=C/C/C=C/CCCCCCCC(=O)O` [Linolelaidic acid], the “inhibition in the enzymatic assay” value (microsomal 5α-reductase) is reported as “as potent as their cis isomers”, the “p (significance of inhibition)” value (hamster flank organ; [11]) is reported as “N.S” and the “Pigmented macule Right (+T)” value (hamster flank organ; [12]) is reported as 46.6 ± 8.7 mm^2. The “Pigmented macule Left” value (hamster flank organ; 21 days) was 4.1 ± 0.7 mm^2, the “inhibition … of pigmented macule” value (hamster flank organ) was “inactive” and the “inhibitory activity in [^3 H]4-MA binding assay” value [1] was “much less inhibitory than their cis isomers”. The inhibition at 40 µM [2, 5] was < 10%, the inhibition at 200 µM [2, 6] was 19 ± 5% and the inhibition at 10 µM [2, 8] was < 10%. The inhibition at 40 µM [2, 9] was < 10% and the inhibition at 200 µM [2, 10] was 19%.

In the case of `CCCCC/C=C\C/C=C\C/C=C\CCCCC(=O)OCC(O)CO` (stereo not shown) [Monoγ-Linolenin], the IC50 [1] is reported as 86 µM, the inhibition at 5 µM [2, 7] is reported as < 10% and the inhibition at 10 µM [2, 8] is reported as < 10%. The inhibition at 40 µM [2, 9] was 35% and the inhibition at 200 µM [2, 10] was 87%.

`CCCC/C=C\CCCCCCCC(=O)O` [Myristoleic acid] was tested, and the “% Inhibition of [^3 H]4-MA binding” value ([1]; Table 2, 10 μM) was “NA (less than 10% inhibition were considered not active (NA))”, the inhibition at 5 µM [2, 13] was < 10% and the inhibition at 10 µM [2, 13] was < 10%. It also gave an inhibition at 40 µM [2, 13] of 25 ± 4% and an inhibition at 200 µM [2, 13] of 43 ± 1%.

For `CCCCCCCC/C=C\CCCCCCCCCCCCCC(=O)O` [Nervonic acid], the “p (significance of inhibition)” value (hamster flank organ; [11]) was “N.S”, the “Pigmented macule Right (+T)” value (hamster flank organ; [12]) was 39.9 ± 5.4 mm^2 and the “Pigmented macule Left” value (hamster flank organ; 21 days) was 4.0 ± 1.5 mm^2. The “inhibition … of pigmented macule” value (hamster flank organ) was “no significant inhibition”, the “inhibitory activity in [^3 H]4-MA binding assay” value [1] was “inactive” and the IC50 [2] was > 200 µM. For the same compound, the inhibition at 40 µM [2, 5] was < 10%, the inhibition at 200 µM [2, 6] was < 10% and the inhibition at 40 µM [2, 9] was < 10%. For the same compound, the inhibition at 200 µM [2, 10] was < 10%.

`C=CCCCCCCCCC(=O)O` [Undecylenic acid] was tested, and the “p (significance of inhibition)” value (hamster flank organ; [11]) was “N.S”, the “Pigmented macule Right (+T)” value (hamster flank organ; [12]) was 41.7 ± 10.7 mm^2 and the “Pigmented macule Left” value (hamster flank organ; 21 days) was 4.7 ± 1.2 mm^2. The “inhibition … of pigmented macule” value (hamster flank organ) was “no significant inhibition”, the “inhibitory activity in [^3 H]4-MA binding assay” value [1] was “inactive” and the “% Inhibition of [^3 H]4-MA binding” value ([1]; Table 2, 40 μM) was “NA (less than 10% inhibition were considered not active (NA))”. For the same compound, the inhibition at 10 µM [2, 13] was < 10%, the inhibition at 40 µM [2, 13] was < 10% and the inhibition at 200 µM [2, 13] was 13 ± 2%.

With `O=C(O)c1cc(O)c(O)c(O)c1` [gallic acid, reference compound] the “inhibitory activity” value [3] was “not active” and the “inhibitory activity” value (5α-reductase) was “not as active as catechin gallate”.

In the case of `COC(=O)c1cc(O)c(O)c(O)c1` [methyl gallate], the “inhibitory activity” value (5α-reductase) is reported as “not as active as catechin gallate”.

`CCCCCCCCOC(=O)c1cc(O)c(O)c(O)c1` [n-octyl gallate] was tested, and the “inhibitory activity” value (5α-reductase) was “low inhibitory activity”.

For `CCCOC(=O)c1cc(O)c(O)c(O)c1` [n-propyl gallate], the “inhibitory activity” value (5α-reductase) was “not as active as catechin gallate”.

In the case of `Oc1cccc(O)c1O` [pyrogallol], the “inhibitory activity” value (5α-reductase) is reported as “not as active as catechin gallate”.

`CC1=C(/C=C/C(C)=C/C=C/C(C)=C/C=O)C(C)(C)CCC1` [retinal] was tested, and the “stimulation or inhibition” value [1] was “no stimulation or inhibition” and the activation at 200 µM [2] was 58%.
